Measured values taken from ChEMBL document CHEMBL1201862, “PubChem BioAssay data set” (2004).
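Cells were grown in 96-well plates and exposed to each compound for 48 hours at five concentrations; endpoints were interpolated linearly between bracketing concentrations, or set to the highest concentration if not reached. GI50 marks 50% less growth.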 Activity calls are given as the source filed them. Rule as the data show it: active = GI50 up to about 1.1 µM and inactive = higher. Non-standard residues stand in square brackets, D forms with d. Residues, ends and D or L forms follow the SMILES beside them. ξ: configuration not given here. *: point of attachment. NMeF = CN[C@@H](Cc1ccccc1)C(=O)O; NMeV = CN[C@H](C(=O)O)C(C)C; ξNMeV = CNC(C(=O)O)C(C)C; Boc = CC(C)(C)OC(=O)*; OBn = c1ccc(CO*)cc1

Experiments:
Test in all cases: growth of human tumour cells (NCI), 48 h
[1] = tested on: HOP-18
[2] = tested on: SNB-78
[3] = tested on: KM-20L2
[4] = tested on: XF498
[5] = tested on: DLD-1
[6] = tested on: DMS-273
[7] = tested on: DMS-114
[8] = tested on: LXFL 529
[9] = tested on: RXF 631

| SMILES | GI50 [1] | GI50 [2] | GI50 [3] | GI50 [4] | GI50 [5] | GI50 [6] | GI50 [7] | GI50 [8] | GI50 [9] |
| --- | --- | --- | --- | --- | --- | --- | --- | --- | --- |
| O=NN(CCCl)C(=O)N[C@H]1CC[C@@H](CC(=O)O)CC1 | > 100 µM (inactive) | > 100 µM (inactive) | > 100 µM (inactive) | > 100 µM (inactive) | > 100 µM (inactive) | > 100 µM (inactive) | > 100 µM (inactive) | – | – |
| COc1ccc(OC)c2c1CC(C(=O)O)(C(=O)O)CC2=O | – | > 100 µM (inactive) | > 100 µM (inactive) | – | – | – | > 100 µM (inactive) | > 100 µM (inactive) | – |
| COc1ccc(C2S/C(=C\c3ccc(O)cc3)C(=O)N2NC(=O)Cc2ccccc2)cc1 (centres undefined) | > 100 µM (inactive) | – | – | – | > 100 µM (inactive) | > 100 µM (inactive) | > 100 µM (inactive) | > 100 µM (inactive) | – |
| CC(=O)N/C(=C\c1ccccc1/C=C(\NC(C)=O)c1nc2cc(C)c(C)cc2[nH]1)c1nc2cc(C)c(C)cc2[nH]1 | – | 10.7 µM (inactive) | 29.4 µM (inactive) | 15.6 µM (inactive) | 19.2 µM (inactive) | 2.56 µM (inactive) | 0.23 µM (active) | 17.1 µM (inactive) | – |
| CCN(CC)Cc1cc(Nc2ccnc3ccc4nn(C)nc4c23)ccc1O | – | 15.9 µM (inactive) | 6.89 µM (inactive) | 11.8 µM (inactive) | – | – | – | 12.6 µM (inactive) | 7.78 µM (inactive) |
| O=C(c1ccccc1)c1ccc2cccc(OC3OC(CO)C(O)C(O)C3O)c2n1 (centres undefined) | > 100 µM (inactive) | > 100 µM (inactive) | > 100 µM (inactive) | > 100 µM (inactive) | > 100 µM (inactive) | > 100 µM (inactive) | > 100 µM (inactive) | > 100 µM (inactive) | – |
| O=C(/C=C/C1C(=O)NC(=O)NC1=O)CC(=O)C(=O)Nc1cc(Cl)c(Cl)cc1Cl | > 100 µM (inactive) | > 100 µM (inactive) | > 100 µM (inactive) | > 100 µM (inactive) | > 100 µM (inactive) | > 100 µM (inactive) | > 100 µM (inactive) | > 100 µM (inactive) | – |
| CCN1C(C)=NC2C(=O)c3ccccc3C(=O)C21 (centres undefined) | – | – | 27.2 µM (inactive) | 42.5 µM (inactive) | – | 48.6 µM (inactive) | 32.2 µM (inactive) | 94.4 µM (inactive) | > 100 µM (inactive) |
| C[C@H](NC(=O)OC1C2C=CC(O)C1CC2)c1ccccc1 (some centres undefined) | > 100 µM (inactive) | > 100 µM (inactive) | 45.3 µM (inactive) | > 100 µM (inactive) | 89.1 µM (inactive) | 24.4 µM (inactive) | 60.8 µM (inactive) | > 100 µM (inactive) | – |
| CON(C)C(=O)CCCO | > 100 µM (inactive) | – | > 100 µM (inactive) | > 100 µM (inactive) | > 100 µM (inactive) | – | > 100 µM (inactive) | > 100 µM (inactive) | > 100 µM (inactive) |
| CCC(=O)O[C@@H]1C2C(OC(C)=O)C34COC(C)([C@@H]3C3C(C[C@]3(C)OC(C)=O)[C@@H](OC(=O)c3ccccc3)C4=O)[C@H](OC(C)=O)[C@@]2(OC(C)=O)C[C@@H]1C (some centres undefined) | > 100 µM (inactive) | 5.5 µM (inactive) | > 100 µM (inactive) | – | > 100 µM (inactive) | 44.1 µM (inactive) | 23.3 µM (inactive) | 34.9 µM (inactive) | 86.1 µM (inactive) |
| COC[C@@H]1Cc2cc(OC)c3c(c2[C@H](c2ccc(OC)c(OC)c2)[C@H]1COC)OCO3 [HYPOPHYLLANTHIN] | > 100 µM (inactive) | – | > 100 µM (inactive) | 19.1 µM (inactive) | 47.3 µM (inactive) | > 100 µM (inactive) | > 100 µM (inactive) | > 100 µM (inactive) | > 100 µM (inactive) |
| CCOC(=O)C1=C(C)N(NC(=O)OC)C2(N)N(NC(=O)OC)C(C)=C(C(=O)OCC)C12C#N (centres undefined) | – | – | > 100 µM (inactive) | > 100 µM (inactive) | > 100 µM (inactive) | > 100 µM (inactive) | > 100 µM (inactive) | > 100 µM (inactive) | – |
| C[C@@H]1CC2(C[C@@H](C)C3[C@@H](CC4(C)CCCC5C6=CC(O)(CC[C@]34C)OC6=CC(=O)OC5(C)C)O2)OC1=O (some centres undefined) | > 100 µM (inactive) | – | – | > 100 µM (inactive) | > 100 µM (inactive) | > 100 µM (inactive) | > 100 µM (inactive) | > 100 µM (inactive) | – |
| O=[N+]([O-])c1ccc(C2SCc3nc4ccccc4n32)cc1 (centres undefined) | 88.3 µM (inactive) | > 100 µM (inactive) | > 100 µM (inactive) | 12.3 µM (inactive) | 89.7 µM (inactive) | 54.1 µM (inactive) | 35.1 µM (inactive) | 43.4 µM (inactive) | > 100 µM (inactive) |
| CC1OC(OCC2OC(Oc3c(-c4ccc(O)cc4)oc4cc(O)cc(O)c4c3=O)C(OC3OC(C)C(O)C(O)C3O)C(O)C2O)C(O)C(O)C1O (centres undefined) | > 100 µM (inactive) | > 100 µM (inactive) | > 100 µM (inactive) | > 100 µM (inactive) | > 100 µM (inactive) | > 84.1 µM (inactive) | > 53.7 µM (inactive) | > 100 µM (inactive) | > 100 µM (inactive) |
| CC(C)N(C(=O)C12C3C4C1C1C4(C#N)C3C12C#N)C(C)C (centres undefined) | > 100 µM (inactive) | > 100 µM (inactive) | > 100 µM (inactive) | > 100 µM (inactive) | > 100 µM (inactive) | – | > 100 µM (inactive) | > 100 µM (inactive) | > 100 µM (inactive) |
| OCC1O[C@H](O[C@@H]2CCCN3CC(O)C(O)[C@@H]23)C(O)C(O)C1O (some centres undefined) | > 100 µM (inactive) | > 100 µM (inactive) | > 100 µM (inactive) | – | > 100 µM (inactive) | > 100 µM (inactive) | – | > 100 µM (inactive) | > 100 µM (inactive) |
| COc1ccc(C(=O)C(C(=O)CCC(=O)Nc2cccc(C(F)(F)F)c2)c2ccccc2)cc1 (centres undefined) | > 100 µM (inactive) | > 100 µM (inactive) | > 100 µM (inactive) | 54.1 µM (inactive) | > 100 µM (inactive) | > 100 µM (inactive) | 36.2 µM (inactive) | 62.2 µM (inactive) | – |
| CCNC1=Nc2ccccc2-n2c(nn3nc4ccccc4c23)N1CC | > 100 µM (inactive) | – | > 100 µM (inactive) | – | > 100 µM (inactive) | > 100 µM (inactive) | 89.3 µM (inactive) | > 100 µM (inactive) | – |
| CC1(O)C=CC2CCC1C2O (centres undefined) | > 100 µM (inactive) | > 100 µM (inactive) | 50.9 µM (inactive) | > 100 µM (inactive) | 58.7 µM (inactive) | 55.6 µM (inactive) | 17.7 µM (inactive) | 78.9 µM (inactive) | – |
| CC(C)C(C(=O)N(C)[C@H](C(=O)N1CCC[C@H]1C(=O)N(C)[C@@H](Cc1ccccc1)C(=O)OCc1ccccc1)C(C)C)N(C)C(=O)[C@@H](NC(=O)OC(C)(C)C)C(C)C (some centres undefined) (Boc-V[ξNMeV][NMeV]P[NMeF]-OBn) | 32.1 µM (inactive) | > 31.6 µM (inactive) | > 31.6 µM (inactive) | 6.19 µM (inactive) | 24.9 µM (inactive) | 5.48 µM (inactive) | 11 µM (inactive) | 15.1 µM (inactive) | – |
| c1ccc(/N=c2\snc3scc(-c4ccccc4)n23)cc1 | 24.8 µM (inactive) | 57.3 µM (inactive) | – | 32.1 µM (inactive) | 36.9 µM (inactive) | 38.8 µM (inactive) | 30.3 µM (inactive) | 33.5 µM (inactive) | 66.8 µM (inactive) |
